Consider one compound from US10435399B2, “HDAC6 inhibitory heterocyclic compound” (TAKEDA PHARMACEUTICAL COMPANY LIMITED, priority 2017, dated 2019).

Data set [1] has as its target T1, HDAC6 enzyme (Homo sapiens, UniProt Q9UBN7).
T1 construct: transducing full length HDAC6 gene into Sf-9 insect cells; GST; purchased SignalChem; host or cells: Sf-9 insect cells
T1 sequence (Q9UBN7 1-1215): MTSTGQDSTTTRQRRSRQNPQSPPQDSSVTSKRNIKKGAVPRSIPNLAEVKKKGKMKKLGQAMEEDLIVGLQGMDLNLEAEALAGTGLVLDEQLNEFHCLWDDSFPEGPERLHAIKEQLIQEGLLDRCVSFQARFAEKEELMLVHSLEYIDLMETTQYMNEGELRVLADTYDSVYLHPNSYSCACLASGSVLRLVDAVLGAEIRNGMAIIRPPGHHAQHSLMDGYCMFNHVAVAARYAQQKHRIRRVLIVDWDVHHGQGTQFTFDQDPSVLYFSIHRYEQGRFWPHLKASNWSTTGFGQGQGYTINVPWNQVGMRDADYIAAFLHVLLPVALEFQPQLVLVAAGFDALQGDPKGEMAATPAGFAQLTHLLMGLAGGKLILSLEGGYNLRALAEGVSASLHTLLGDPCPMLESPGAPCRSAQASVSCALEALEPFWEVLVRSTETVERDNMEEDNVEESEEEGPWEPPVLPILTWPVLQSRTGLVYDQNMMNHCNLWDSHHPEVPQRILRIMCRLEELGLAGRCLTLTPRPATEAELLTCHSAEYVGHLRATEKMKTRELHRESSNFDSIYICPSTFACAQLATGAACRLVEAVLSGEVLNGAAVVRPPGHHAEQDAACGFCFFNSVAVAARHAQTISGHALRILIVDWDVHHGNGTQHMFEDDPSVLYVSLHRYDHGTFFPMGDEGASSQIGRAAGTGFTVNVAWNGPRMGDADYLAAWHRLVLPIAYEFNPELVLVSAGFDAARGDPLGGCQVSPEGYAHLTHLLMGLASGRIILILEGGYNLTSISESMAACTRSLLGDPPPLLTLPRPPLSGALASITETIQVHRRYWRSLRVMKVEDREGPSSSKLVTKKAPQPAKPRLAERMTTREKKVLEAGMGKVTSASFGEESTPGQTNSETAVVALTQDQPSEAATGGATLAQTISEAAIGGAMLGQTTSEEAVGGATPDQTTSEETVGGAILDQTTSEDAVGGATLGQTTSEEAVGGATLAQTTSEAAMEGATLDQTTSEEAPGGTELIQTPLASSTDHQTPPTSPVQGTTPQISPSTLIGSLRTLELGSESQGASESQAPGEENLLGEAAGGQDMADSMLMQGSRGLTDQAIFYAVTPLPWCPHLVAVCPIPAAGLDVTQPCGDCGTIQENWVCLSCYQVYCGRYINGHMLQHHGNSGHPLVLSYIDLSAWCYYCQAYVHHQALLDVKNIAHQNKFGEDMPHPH
Put plainly: HDAC6 enzyme inhibitory activity (HDAC-Glo I/II Assay kit). The data set is classed as biochemical. Conditions: 10 μM; wells without enzyme = 100% inhibition. In short, it runs like this:
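Inhibition is calculated as relative activity, taking luminescence in enzyme-free wells as complete inhibition. The enzyme, full-length and GST-purified after Sf-9 expression, was exposed to compound for 60 min at room temperature before a 20 min HDAC-Glo reaction.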

Data set [2] deals with TK6 cells. Put plainly: γH2AX assay using TK6 cells. It counts as cell-based, Human. Conditions: 4 hr treatment, up to 100 μM. The protocol: γH2AX Assay Using TK6 Cells
Human lymphoblasts-derived TK6 cells were treated with the compounds of Examples 489, 512 or 519 at 0, 10, 30 or 100 μmol/L (final concentration) for 4 hr, and the presence or absence of DNA damage was evaluated by measuring phosphorylation of histone H2AX (γH2AX) as a marker. In addition, cytotoxicity after 24-hr treatment was also evaluated.
Exponentially growing TK6 cells were prepared at the cell density of 4×10^5 cells/mL in a culture medium, and was added to a 96-well plate by 100 μL/well. A test compound solution (2% DMSO) prepared using a culture solution, having twice the concentration on the above-mentioned final concentrations, was added thereto by 100 μL/well. This plate was incubated at 37° C., the cell suspension after 4 hr was sampled, and stained using In Vitro MultiFlow™ DNA Damage Kit (Litron), and H2AX phosphorylation level in each nucleus was measured using a flow cytometer and average value was calculated. The H2AX phosphorylation level in the concurrent vehicle control group was also measured and average value was calculated. The rate of change in the H2AX phosphorylation level in the treatment groups relative to that in the control group was calculated, and Dunnett test (significance level: two-tailed 1%) was performed. In addition, the cell suspension after 24 hr treatment was sampled, and the nucleus number was measured, and variation in the nucleus number in the treatment groups relative to that in the concurrent vehicle control group was used as an indicator of cytotoxicity. […] Therefore, the potential of the compounds for DNA strand breakage was judged to be negative under this test condition.

In data set [3] the test system is bone-marrow cells. Put plainly: Micronucleus test in rats (bone-marrow cells). The data set is classed as in vivo, rats (Crl:CD(SD)). As to conditions: rats, 1000 mg/kg and 2000 mg/kg once daily for 3 days. The protocol:
Combination Assay of Micronucleus Test and Comet Assay in Rats […] Bone-marrow smear for micronucleus analysis was prepared as follows. Femur was cut at both ends, and washed with fetal bovine serum (FBS) in a centrifuging tube, and the obtained bone-marrow fluid was centrifuged for 5 min at room temperature. The supernatant was removed, and the cell sediment was suspended in the remaining small amount of the supernatant. A part of the suspension was dropped on a glass slide, and a cover glass was placed thereon to give a bone-marrow smear. The smear was dried well, and fixed with methanol for 5 min. The bone-marrow smear of negative control, that of treatment groups as well as the previously prepared bone-marrow smear of positive control group were encoded, and observed by the blind method. An acridine orange solution (40 μg/mL) was dropped (several drops) to the smear just before observation, and a cover glass was placed thereon. […] In addition, as an index of growth inhibitory effect on bone-marrow cell, total of 500 erythrocytes [immature erythrocytes+mature erythrocytes (ME)] per individual were observed, and immature erythrocyte rate (IE %) relative to the total number of erythrocytes was calculated.

Regarding `O=C1c2cc(-c3nnc(C(F)F)o3)cnc2CN1[C@@H]1CCCC[C@H]1NC(=O)C(F)(F)C(F)(F)F` [Example 489, N-((1R,2R)-2-(3-(5-(difluoromethyl)-1,3,4-oxadiazol-2-yl)-5-oxo-5,7-dihydro-6H-pyrrolo[3,4-b]pyridin-6-yl)cyclohexyl)-2,2,3,3,3-pentafluoropropanamide], in data set [1], the “HDAC6 inhibitory rate (%) (10 μM)” value is 99%. Moreover, in data set [2], the “histone H2AX phosphorylation (γH2AX) resulted from DNA strand breakage” value was “did not induce histone H2AX phosphorylation” and the “potential for DNA strand breakage (judgement)” value is listed as “negative”. Further, in data set [3], the “genotoxic potential (judgement, micronucleus test and comet assay combined)” value is reported as “negative”; the “micronucleus formation in bone-marrow cell” value was “not induced”.
